The results in this text go back to ChEMBL document CHEMBL1128957, “In vivo potent antifilarial -carbolines” (1996).

Test [1] has as its system Rattus norvegicus. Briefly: In vivo macrofilaricidal activity against Litomosoides carinii in cotton rats at a dose of 6 mg/kg for 5 days administered i.p.: Inactive. Type of test: functional, organism-based. The arrangement: dose 6 mg/kg.
The species entered for test [2] is Rattus norvegicus. Briefly: Percentage of sterilization of surviving female worm Acanthocheilonema viteae in Mastomys natalensis: Inactive. It counts as functional, organism-based.
The test system of test [3] is Rattus norvegicus. Briefly: In vivo macrofilaricidal activity against A. viteae in Mastomys natalensis at a dose of 350 mg/kg for 5 days administered i.p.: Inactive. Type of test: functional, organism-based. The arrangement: dose 350 mg/kg.
The subject of test [4] is Rattus norvegicus. Briefly: In vivo macrofilaricidal activity against A. viteae in Mastomys natalensis at a dose of 50 mg/kg for 5 days administered i.p.: Inactive. Set-up: dose 50 mg/kg. It counts as functional, organism-based.
The species named for test [5] is Rattus norvegicus. The test can be described thus: Percentage of sterilization of surviving female worm Acanthocheilonema viteae: Inactive. Type of test: functional, organism-based.
Test [6] has as its system Rattus norvegicus. Briefly: In vivo macrofilaricidal activity against Litomosoides carinii in cotton rats at a dose of 30 mg/kg for 5 days administered i.p.: Inactive. The arrangement: dose 30 mg/kg. Type of test: functional, organism-based.
The test system of test [7] is Rattus norvegicus. The test can be described thus: In vivo microfilaricidal activity against Litomosoides carinii in cotton rats at a dose of 30 mg/kg for 5 days administered i.p.: Inactive. It counts as functional, organism-based. The arrangement: dose 30 mg/kg.
Test [8] deals with Rattus norvegicus. The test can be described thus: In vivo microfilaricidal activity against A. viteae in Mastomys natalensis at a dose of 50 mg/kg for 5 days administered i.p.: Inactive. The arrangement: dose 50 mg/kg. It counts as functional, organism-based.
Test [9] deals with Rattus norvegicus. The test can be described thus: In vivo macrofilaricidal activity against Acanthocheilonema viteae in Mastomys natalensis at a dose of 50 mg/kg for 5 days administered i.p. It counts as functional. The conditions noted are these: route intraperitoneal.
Test [10] relates to Rattus norvegicus. The test can be described thus: In vivo macrofilaricidal activity against Litomosoides carinii in cotton rats at a dose of 30 mg/kg for 5 days administered i.p. Type of test: functional. Particulars: route intraperitoneal.
For test [11], the species on record is Rattus norvegicus. Briefly: Percentage of sterilization of surviving female worm Acanthocheilonema viteae in Mastomys natalensis. Type of test: functional.
For test [12], the system named is Rattus norvegicus. Briefly: In vivo microfilaricidal activity against Litomosoides carinii in cotton rats at a dose of 30 mg/kg for 5 days administered i.p. It counts as functional. The conditions noted are these: route intraperitoneal.

Active and inactive are the calls of the source. The rule behind the calls is not given here.

`CCN(CC)C(=O)N1CCN(C)CC1.O=C(O)CC(O)(CC(=O)O)C(=O)O` [DIETHYLCARBAMAZINE CITRATE]: the Death entry in the test with Rattus norvegicus [1] and in the test with Rattus norvegicus [3] was “inactive” throughout. Besides, the result in the test filed under Rattus norvegicus [2] was inactive.

With `COC(=O)c1nccc2c1[nH]c1ccccc12`, the Death entry in the test on Rattus norvegicus [4], in the test on Rattus norvegicus [6] and in the test on Rattus norvegicus [7] was “inactive” in each case. In addition, the result in the test filed under Rattus norvegicus [5] was inactive.

As for `NC(=O)C1NCCc2c1[nH]c1ccccc21` (stereo not given), the Death result in the test on Rattus norvegicus [8], in the test with Rattus norvegicus [6] and in the test with Rattus norvegicus [7] was “inactive” throughout. The Death with Rattus norvegicus [9] was 84%. Besides, the outcome in the test listed under Rattus norvegicus [2] was inactive.

On to `COC(=O)C1NCCc2c1[nH]c1ccccc21` (stereo not given), for which the Death entry with Rattus norvegicus [4] and in the test with Rattus norvegicus [7] was “inactive” in each case. In the test with Rattus norvegicus [10], the Death was 81%. Besides, the result in the test listed under Rattus norvegicus [2] was inactive.

As to `NC(=O)c1nccc2c1[nH]c1ccccc12`, the Death entry with Rattus norvegicus [6] and with Rattus norvegicus [7] was “inactive” each time. Also, the Death with Rattus norvegicus [9] amounted to 50%. The same compound gave an Activity in the test filed under Rattus norvegicus [11] of 100.

Regarding `N#Cc1[nH]ccc2c3ccccc3nc1-2`, the Death in the test on Rattus norvegicus [12] is 59%; in the test on Rattus norvegicus [10], 78%; in the test with Rattus norvegicus [9], 50%. In addition, the Death result in the test on Rattus norvegicus [8] was “inactive”. The result in the test filed under Rattus norvegicus [2] was inactive.
